Structures are written as SMILES.

For orientation: LD50 means the dose at which mortality reaches 50%. One may read the ED50 as the midpoint of the dose-response relation. By inhibition in vivo is commonly meant the drop in the measured response relative to a control, in per cent.

Series [1] can be described thus: Acute toxicity in po dosed mouse. The series is classed as organism-based. The conditions noted are these: in vivo.
Series [2] has as its system Rattus norvegicus. In words: Antipsychotic activity in rat assessed as reduction of methamphetamine-induced hyperactivity at 2 mg/kg, po administered prior to methamphetamine challenge relative to vehicle-treated control. The series is classed as functional. Further details: scale not given: the % may be the effect or the level left.
The test system of series [3] is Mus musculus. In words: Anticonvulsant activity in po dosed mouse assessed as dose required to protect 80% of animal measured after 1 to 4 hrs by audiogenic seizure test. The series is classed as functional.
In series [4] the test system is Felis catus. In words: Hypnotic activity in cat assessed as increase in total sleep time at 0.5 mg/kg administered orally through diet measured for 12 hrs by EEG analysis. The following applies: route oral. The series is classed as functional.
Series [5] relates to Felis catus. In words: Hypnotic activity in cat assessed as increase in non-REM sleep time at 0.5 mg/kg administered orally through diet measured for 12 hrs by EEG analysis. In kind it is functional. The following applies: route oral.
Series [6] relates to Mus musculus. Briefly: Analgesic activity in po dosed mouse assessed as inhibition of acetic acid-induced writhing administered 30 mins prior to acetic acid challenge measured after 5 mins for 20 mins. In kind it is functional. For orientation: An intraperitoneal irritant provokes the stretching counted in writhing tests.
Series [7] concerns Mus musculus. Briefly: Antianxiety activity in albino BALB/cJ mouse assessed as reduction in footshock-induced fighting behavior at 10 mg/kg, po after 30 to 90 mins. The series is classed as functional. The arrangement: scale not given: the % may be the effect or the level left.
For series [8], the system named is Rattus norvegicus. Briefly: Antianxiety activity in Long-Evans rat assessed as reduction in motor activity at 5 mg/kg, po after 2 hrs relative to vehicle-treated control. In kind it is functional. The arrangement: scale not given: the % may be the effect or the level left.
The next series relates to Rhesus monkey. In words: Antianxiety activity in po dosed rhesus monkey assessed as antiagressive behavior measured every hour post dosing. The series is classed as functional. The following applies: Macaca mulatta, read-out: MED.
In another series the test system is Canis familiaris. Briefly: Antianxiety activity in po dosed dog assessed as ataxia administered as single dose measured up to 24 hrs. The series is classed as functional. The following applies: Canis lupus familiaris, read-out: MED.
Series [9] relates to Rattus norvegicus. In words: Antipsychotic activity in rat assessed as reduction of methamphetamine-induced hyperactivity at 5 mg/kg, po administered prior to methamphetamine challenge relative to vehicle-treated control. The series is classed as functional. Further details: scale not given: the % may be the effect or the level left.
Series [10] is filed under the species Rattus norvegicus. In words: animal or person. In kind it is functional. The following applies: Charles River, route oral.
Description: Antidiarrheal activity in Charles River rat assessed as inhibition of castor oil-induced diarrhea by measuring protected animals at 0.5 mg/kg, po administered 1 hr prior to castor oil challenge measured after 1 hr relative to vehicle-treated control
For series [11], the system named is Rattus norvegicus. Briefly: Antipsychotic activity in rat assessed as reduction of methamphetamine-induced hyperactivity at 20 mg/kg, po administered prior to methamphetamine challenge relative to vehicle-treated control. In kind it is functional. Further details: scale not given: the % may be the effect or the level left.
The test system of series [12] is Rattus norvegicus. Briefly: Antihypertensive activity in spontaneously hypertensive rat model assessed as reduction in blood pressure at 3 mg/kg, po after 3 hrs. Further details: scale not given: the % may be the effect or the level left. In kind it is functional.
The subject of series [13] is Rattus norvegicus. In words: Antihypertensive activity in spontaneously hypertensive rat model assessed as reduction in blood pressure at 3 mg/kg, po after 24 hrs. In kind it is functional. The arrangement: scale not given: the % may be the effect or the level left.
In series [14] the test system is Rattus norvegicus. Briefly: Antihypertensive activity in spontaneously hypertensive rat model assessed as reduction in blood pressure at 1 mg/kg, po after 3 hrs. In kind it is functional. The arrangement: scale not given: the % may be the effect or the level left.
Series [15] deals with Rattus norvegicus. In words: Antihypertensive activity in spontaneously hypertensive rat model assessed as reduction in blood pressure at 1 mg/kg, po after 24 hrs. The series is classed as functional. Further details: scale not given: the % may be the effect or the level left.
For series [16], the system named is Mus musculus. Briefly: Analgesic activity in mouse assessed as inhibition of acetic acid-induced writhing at 10 mg/kg, po administered 30 mins prior to acetic acid challenge measured after 5 mins for 20 mins. In kind it is functional.
Series [17] relates to Rattus norvegicus. Briefly: Antipsychotic activity in rat assessed as reduction of methamphetamine-induced hyperactivity at 10 mg/kg, po administered prior to methamphetamine challenge relative to vehicle-treated control. In kind it is functional. The arrangement: scale not given: the % may be the effect or the level left.
The subject of series [18] is Rattus norvegicus. In words: Antihypertensive activity in spontaneously hypertensive rat model assessed as reduction in blood pressure at 30 mg/kg, po after 3 hrs. In kind it is functional. Further details: scale not given: the % may be the effect or the level left.
Series [19] has as its system Rattus norvegicus. In words: Antihypertensive activity in spontaneously hypertensive rat model assessed as reduction in blood pressure at 30 mg/kg, po after 24 hrs. The series is classed as functional. The arrangement: scale not given: the % may be the effect or the level left.
The test system of series [20] is Mus musculus. Briefly: Antianxiety activity in albino BALB/cJ mouse assessed as reduction in footshock-induced fighting behavior at 5 mg/kg, po after 30 to 90 mins. The series is classed as functional. Further details: scale not given: the % may be the effect or the level left.
Series [21] deals with Rattus norvegicus. In words: Antianxiety activity in Long-Evans rat assessed as reduction in motor activity at 1 mg/kg, po after 2 hrs relative to vehicle-treated control. In kind it is functional. The arrangement: scale not given: the % may be the effect or the level left.

For the molecule `CC1CCC2=C(C1)c1c(O)cc(C(C)CCCc3ccccc3)cc1OC2(C)C` (stereo not drawn), the LD50 in [1] was found to be 750 mg/kg. Moreover, the Activity with Rattus norvegicus [2] came out at 46%; with Mus musculus [3], 30 mg/kg; with Mus musculus [7] it was 77%; with Rattus norvegicus [8], 36%; in the series with Rattus norvegicus [9], 77%. Also, the values for the Time with Felis catus [4] and with Felis catus [5] were 28 min and 2 min, respectively. For the same molecule, in the series with Mus musculus [6], the ED50 was 17 mg/kg. The results for the minimal effective dose with Rhesus monkey and with Canis familiaris were 0.5 mg/kg and 1 mg/kg, respectively.
With `Cc1ccc(CCCC(C)c2cc(O)c3c(c2)OC(C)(C)C2=C3CC(C)CC2)cc1` (stereo not drawn), the inhibition in vivo at 0.5 mg/kg in the series listed under Rattus norvegicus [10] was 90%. The same molecule registered an LD50 in [1] of no less than 1000 mg/kg. The Activity with Rattus norvegicus [11] worked out at 72%; with Rattus norvegicus [12], 26%; with Rattus norvegicus [13] it was 16%; in the series with Rattus norvegicus [14], 0%; in the series on Rattus norvegicus [15] it was 0%; in the series with Mus musculus [7], 10%. Also, the results for the Activity with Rattus norvegicus [8] and with Rattus norvegicus [9] were 16% and 66%, respectively. Also, the inhibition in vivo at 10 mg/kg with Mus musculus [16] worked out at 30%.
The molecule `C#CCN1CCC2=C(C1)c1c(O)cc(C(C)CCCCc3ccc(F)cc3)cc1OC2(C)C` (stereo not drawn) came in with an inhibition in vivo at 0.5 mg/kg in the series listed under Rattus norvegicus [10] of 30%. In series [1], this molecule registered an LD50 of no less than 1000 mg/kg. The Activity is given as 50% in the series on Rattus norvegicus [17]; 70% in the series on Rattus norvegicus [11]; 0% in the series on Rattus norvegicus [18]; 0% with Rattus norvegicus [19]; 0% in the series with Mus musculus [20]; 33% in the series with Rattus norvegicus [8]. Besides, the Time in the series with Felis catus [4] worked out at 61 min; in the series on Felis catus [5] it was 7 min. In the series with Mus musculus [6], the ED50 is 48 mg/kg.
As for `CC1CCC2=C(C1)c1c(O)cc(C(C)CCCCc3ccc(F)cc3)cc1OC2(C)C` (stereo not drawn), the inhibition in vivo at 0.5 mg/kg in the series listed under Rattus norvegicus [10] was 80%. The molecule also returned a 50% lethal dose (LD50) in [1] of 750 mg/kg. Also, the Activity in the series on Rattus norvegicus [17] stood at 71%; in the series on Rattus norvegicus [12] it was 33%; in the series with Rattus norvegicus [13], 14%; with Rattus norvegicus [14], 7%; in the series with Rattus norvegicus [15] it was 4%; in the series with Rattus norvegicus [21] it was 40%. Further, the values for the Activity with Mus musculus [20], in the series with Rattus norvegicus [8] and with Rattus norvegicus [9] were 4%, 73% and 65%, respectively. Further, the ED50 with Mus musculus [6] worked out at 20.5 mg/kg.
Molecule `CC1CCC2=C(C1)c1c(O)cc(CCCCCc3ccc(F)cc3)cc1OC2(C)C` (stereo not drawn) had an LD50 in [1] of no less than 1000 mg/kg. In addition, the Activity in the series on Rattus norvegicus [12] is 27%; with Rattus norvegicus [13], 17%; in the series with Rattus norvegicus [14], 6%; in the series on Rattus norvegicus [15], 9%; with Mus musculus [20], 36%; with Rattus norvegicus [8] it was 16%. The Activity with Rattus norvegicus [9] came out at 39%. For the same molecule, in the series on Mus musculus [16], the inhibition in vivo at 10 mg/kg is 41%.
On to `CC1CSC2=C1c1c(O)cc(C(C)CCCc3ccc(F)cc3)cc1OC2(C)C` (stereo not drawn), for which the LD50 in series [1] came out at 500 mg/kg. In addition, the Activity in the series on Rattus norvegicus [2] came to 55%; with Mus musculus [7], 100%; in the series with Rattus norvegicus [8], 85%; in the series with Rattus norvegicus [9] it was 78%. Also, the Time in the series on Felis catus [4] came out at 11 min; with Felis catus [5] it was 8 min. In addition, in the series on Mus musculus [6], the ED50 is 8.4 mg/kg.
The molecule `CC1CCC2=C(C1)c1c(O)cc(C(C)C(C)Cc3ccc(F)cc3)cc1OC2(C)C` (stereo not drawn) returned an LD50 in series [1] of no less than 1000 mg/kg. For the same molecule, the Activity in the series with Rattus norvegicus [17] turned out to be 28%; in the series on Rattus norvegicus [11], 56%; with Rattus norvegicus [12], 21%; with Rattus norvegicus [13], 24%; with Rattus norvegicus [14], 22%; with Rattus norvegicus [15] it was 9%. Further, the Activity in the series with Mus musculus [7] was determined as 4%; in the series on Rattus norvegicus [8] it was 66%. Moreover, in the series with Mus musculus [16], the inhibition in vivo at 10 mg/kg is 38%.
With `C#CCN1CCC2=C(C1)c1c(O)cc(C(C)C(C)CCCc3ccc(F)cc3)cc1OC2(C)C` (stereo not drawn), in the series filed under Rattus norvegicus [10], the inhibition in vivo at 0.5 mg/kg came to 0%. This molecule also displayed an LD50 in series [1] of no less than 1000 mg/kg. Besides, the inhibition in vivo at 10 mg/kg in the series with Mus musculus [16] stood at 35%. For the same molecule, the Activity with Mus musculus [20] was found to be 23%; in the series on Rattus norvegicus [8], 46%; in the series on Rattus norvegicus [9], 0%.
